We go through three compounds from patent publication US20220306622A1, “SALT AND CRYSTAL FORM OF MTORC1/2 DUAL KINASE ACTIVITY INHIBITOR AND PREPARATION METHOD THEREFOR” (MEDSHINE DISCOVERY INC., priority 2019, published 2022).

Entries after “also recorded” stand apart in the source; their conditions may differ. Where only a bound is given, the exact number is not on record here.

Data set [1] in a line: Solid stability test under long-term and accelerated conditions (XRPD). The format is physicochemical. How it is done: Each sample was put into a double-layer LDPE Bag with each layer buckled and sealed respectively, and then the LDPE Bag was put into an aluminum foil bag and heat sealed. The samples were investigated for XRPD under the conditions of 25° C./60% RH (14 bags), 30° C./65% RH (10 bags) and 40° C./75% RH (10 bags). The test results were compared with the initial test results of 0 days.

Data set [2] in a line: Dynamic vapor sorption (DVS) hygroscopicity study. Particulars: 25.6° C. and 80% RH. It is filed as physicochemical. The method, then:
Instrument model: SMS DVS Advantage dynamic vapour adsorbent device
Test conditions: taking the sample (10-15 mg) and putting it into a DVS sample tray for test.
Detailed DVS parameters are as follows:
Balance: dm/dt=0.01%/min (minimum: 10 min, maximum: 180 min)
RH(%) test step range: 0%-90%-0% RH (%)
The evaluation of moisture absorption is classed as follows:
DVS Advantage dynamic vapour adsorbent device

Data set [3] deals with subcutaneous xenografts of human breast cancer MCF-7 cell. Kind of data set: In vivo pharmacodynamic study, subcutaneous MCF-7 xenograft model. More on the design: species or system nude BALB/c mice. How it is done:
Experimental objective: to study the in vivo efficacy of the compound to be tested on subcutaneous xenografts of human breast cancer MCF-7 in nude BALB/c mice model.
Experimental animals: female BALB/C nude mice, 6-8 weeks old, weighing 18-22 g; Supplier: Shanghai Xipur Bikai Experimental Animal Co., Ltd.
Human breast cancer MCF-7 cells (ECACC, item number: 86012803) were cultured in monolayer in vitro. The culture conditions were EMEM (EBSS)+2 mM […]+1% Non Essential Amino Acids (NEAA) medium plus 10% fetal bovine serum, 100 U/mL penicillin and 100 μg/mL streptomycin, incubated in 5% CO2 incubator at 37° C. Cells were passaged through routine digestion using Trypsin EDTA twice a week. When the cell saturation was 80%-90% and the number reached the requirements, cells were collected, counted and inoculated. […]
The experimental index is used for investigating whether tumor growth is inhibited, delayed or cured. The tumor diameter was measured with a vernier caliper twice a week. […]
The antitumor effect of the compound was evaluated by TGI (%) or relative tumor proliferation rate T/C(%). […]
Relative tumor proliferation rate T/C (%): the calculation formula is as follows: T/C %=TRTV/CRTV (TRTV:RTV in treatment group; CRTV:RTV in negative control group). The relative tumor volume (RTV) is calculated according to the results of tumor measurement. […]

A short description of data set [4]: Pharmacokinetic evaluation in plasma of mice (IV and PO). It is filed as in vivo, BALB/C female mice. Particulars: mouse. The method, then: The tested compound was mixed with 5% DMSO/95% 10% polyoxyethylene castor oil (Cremophor EL) followed by vortex and ultrasonic treatment to prepare 1 mg/mL approximate clear solution, which was filtered by microporous membrane before used. BALB/C female mice of 18 to 20 g were injected with the compound solution intravenously at a dose of 1 or 2 mg/kg. The tested compound was mixed with 1% Tween […], 90% aqueous solution followed by vortex and ultrasonic treatment to prepare 1 mg/mL approximate clear solution, which was filtered by microporous membrane before used. BALB/C female mice of 18 to 20 g were given the candidate compound solution orally at a dose of 2 or 10 mg/kg. Whole blood was collected for a certain time to prepare plasma. The medicament was analyzed for its concentration by LC-MS/MS, and the pharmacokinetic parameters were calculated by Phoenix winnonlin software (pharsight company).

For a further data set, the system named is N87 cells. Kind of data set: Cell proliferation inhibitory activity (Cell-Titer-Glo), N87. It is filed as cell-based. The method, then:
(§1) Objective: the inhibitory activity of the compound to be tested was tested on cell proliferation.
(§2) Experimental principle: Luciferase in Cell-Titer-Glo reagent uses luciferin, oxygen and ATP as reaction substrates to produce oxidized luciferin and release energy in the form of light. Since ATP is required for luciferase reaction, the total amount of light produced by the reaction is directly proportional to the total amount of ATP in response to cell viability.
(§3) Cell lines: MCF-7 cell line (ATCC-CRL-22), HT-29 cell line (ATCC-HTB-38), OE21 (ECACC-96062201), NCI-N87 cell line (ATCC-CRL-5822)
(§4) Cell Titer-Glo® Luminescent cell viability test kit (Promega #G7573)
(§5) According to the schematic diagram of cell seed plate, 384 or 96 well plate was seeded based on 1000 cells per well with a density of 25 μL per well, and the edge well was supplemented with 25 μL PBS, instead of cells.
(§6) (1) The mother liquor of the compound was 10 mM, and the compound was diluted with DMSO to obtain its initial concentration of 4 mM. The compound was added into the mother liquor plate with 9 μL per well. […]
(§7) The cell plate was taken from the incubator and balanced at room temperature for 30 minutes. […] After 10 minutes, the plate reading was performed on PerkinElmer envision with setting the […] reading time of 0.2 seconds.

The target in another data set is T1, mTOR kinase (Homo sapiens, UniProt P42345).
T1 construct: purchased discoverx; host or cells: HEK-293
Kind of data set: mTOR kinase inhibitory activity in vitro (discoverx ligand-bead competition binding, qPCR). How it is done:
This experiment was tested on discoverx, and all materials and methods were from discoverx.
1. The labeled mTOR kinase was stably expressed in HEK-293 cells.
2. Streptavidin magnetic beads were treated with biotinylated small molecule ligands for 30 minutes at room temperature to produce an affinity resin for kinase analysis;
3. The ligand beads were blocked with excess biotin and washed with buffer (1% bovine serum albumin, 20 […] of dithiothreitol) to wash off unbound ligands and nonspecifically bound ligands;
5. The test compound was dissolved in dimethyl sulfoxide;
6. All compounds used for measurement were dissolved in DMSO and then diluted directly to a concentration of 0.9%;
7. The solution was placed on 384 well polypropylene plates with a volume of 0.02 mL of each well;
8. The plate was shaked at room temperature for 1 hour;
9. The plate was washed with buffer (1× PBS, 0.05% Tween 20);
10. Affinity beads were resuspended in buffer (1× PBS, 0.05% Tween 20, 0.5 μM nonbiotin-affinity ligands) and incubated at room temperature for 30 minutes;
11. The kinase in eluent was measured for its concentration by qPCR.
A general note: Quantitative PCR measures a nucleic acid by following its amplification.

The next data set deals with MCF-7 cells. Kind of data set: Cell proliferation inhibitory activity (Cell-Titer-Glo), MCF-7. It is filed as cell-based, human. The method, then: as §1, §2, §3, §4, §5, §6, §7

For the compound `C[C@H]1COCCN1c1nc(N2CCOC3(CC3)C2)nc2nc(-c3cccc(C(N)=O)c3)ccc12`, the “Crystal form (XRPD)” value in data set [1] (25° C./60% RH, 3 months) was “Crystal form A”; in data set [1] (25° C./60% RH, 6 months), “Crystal form A”; in data set [1] (40° C./75% RH, 3 months) it was “Crystal form A”; in data set [1] (40° C./75% RH, 6 months), “Crystal form A”; in data set [1] (Day 0 (initial)), “Crystal form A”. Further, in data set [1] (high temperature, high humidity and strong light), the “solid stability (in words)” value was “good stability”. In addition, the “hygroscopicity (classification)” value in data set [2] is “without hygroscopicity”. Besides, the “ΔW % (hygroscopic weight gain)” value in data set [2] is less than 0.2%.

On to `CNC(=O)c1cccc(-c2ccc3c(N4CCOC[C@@H]4C)nc(N4CCOC[C@@H]4C)nc3n2)c1` [AZD2014, reference compound], for which, in data set [3] (15 mg/kg), the “RTV (day 27)” value amounted to 0.85 ± 0.26.

As a reminder, the bioavailability is the share of a dose that reaches the circulation, judged against a reference dose that is usually intravenous. Read a low bioavailability as poor availability. For the compound `C[C@H]1COCCN1c1nc(N2CCOC3(CC3)C2)nc2nc(-c3cccc(C(N)=O)c3)ccc12` [Compound of formula (I)], in data set [4] (female, BALB/C, plasma, 10 mg/kg, oral administration), the bioavailability was roughly 100%. In addition, in data set [4], the “pharmacokinetic properties compared with the reference compound (in words)” value is listed as “the same or even better pharmacokinetic properties as the reference compound”. Also, the “efficacy in MCF-7 Xenograft tumor model compared with AZD2014 (in words)” value in data set [3] (mouse, in vivo) was “equivalent to that of AZD2014; also recorded: comparable to AZD2014”. Also, the “inhibitory activity on proliferation of N87 cells (in words)” value in the data set with N87 cells is “obvious inhibitory activity”. Moreover, the “mTOR kinase inhibitory activity (in words)” value on mTOR kinase is on record as “significant or even unexpected mTOR kinase inhibitory activity, which is better than the current clinical compound AZD2014”. Moreover, in the data set with MCF-7 cells, the “inhibitory activity on proliferation of MCF-7 cells (in words)” value was “obvious inhibitory activity”.
